Here are results for three compounds from patent US20240277658A1, “NLRP3 ACTIVATORS FOR USE IN THE TREATMENT OF INFECTIOUS DISEASES OR CANCER BY ACTIVATING NLRP3 INFLAMMASOME” (ALBERT-LUDWIGS-UNIVERSITÄT FREIBURG, priority 2020, published 2024).

“And” between values parts separate entries of the source, which are not always exact repeats. Equal entries are not always repeated. Where two headings read alike, the source gives them in different places.

One test concerns BMDCs. Kind of test: LDH release (lytic cell death, pyroptosis) from LPS-primed BMDCs. Format: cell-based, mouse. To be noted: for cytotoxicity at 5 µM / cytotoxicity at 50 µM / cytotoxicity at 100 µM / cytotoxicity at 20 µM / cytotoxicity at 40 µM / cytotoxicity at 80 µM: Mus musculus, BMDC; for Average (% positive control): LDH release. The method, boiled down: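 Mouse BMDCs (7-9 days differentiated, GM-CSF) primed with 50 ng ml^−1 E. coli K12 LPS for 3 hours, then exposed 3 hours to compounds (50 μM unless indicated) or activators (nigericin 5 μM; R837, CL097 100 μM). Lytic death measured as LDH release by colorimetric assay, triplicate wells.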

In test [1] the target is T1, NLRP3 inflammasome (Mus musculus, UniProt Q8R4B8).
T1 construct: endogenous in cells; host or cells: primary mouse bone marrow-derived dendritic cells (BMDCs), LPS-primed
T1 sequence (Q8R4B8 whole entry): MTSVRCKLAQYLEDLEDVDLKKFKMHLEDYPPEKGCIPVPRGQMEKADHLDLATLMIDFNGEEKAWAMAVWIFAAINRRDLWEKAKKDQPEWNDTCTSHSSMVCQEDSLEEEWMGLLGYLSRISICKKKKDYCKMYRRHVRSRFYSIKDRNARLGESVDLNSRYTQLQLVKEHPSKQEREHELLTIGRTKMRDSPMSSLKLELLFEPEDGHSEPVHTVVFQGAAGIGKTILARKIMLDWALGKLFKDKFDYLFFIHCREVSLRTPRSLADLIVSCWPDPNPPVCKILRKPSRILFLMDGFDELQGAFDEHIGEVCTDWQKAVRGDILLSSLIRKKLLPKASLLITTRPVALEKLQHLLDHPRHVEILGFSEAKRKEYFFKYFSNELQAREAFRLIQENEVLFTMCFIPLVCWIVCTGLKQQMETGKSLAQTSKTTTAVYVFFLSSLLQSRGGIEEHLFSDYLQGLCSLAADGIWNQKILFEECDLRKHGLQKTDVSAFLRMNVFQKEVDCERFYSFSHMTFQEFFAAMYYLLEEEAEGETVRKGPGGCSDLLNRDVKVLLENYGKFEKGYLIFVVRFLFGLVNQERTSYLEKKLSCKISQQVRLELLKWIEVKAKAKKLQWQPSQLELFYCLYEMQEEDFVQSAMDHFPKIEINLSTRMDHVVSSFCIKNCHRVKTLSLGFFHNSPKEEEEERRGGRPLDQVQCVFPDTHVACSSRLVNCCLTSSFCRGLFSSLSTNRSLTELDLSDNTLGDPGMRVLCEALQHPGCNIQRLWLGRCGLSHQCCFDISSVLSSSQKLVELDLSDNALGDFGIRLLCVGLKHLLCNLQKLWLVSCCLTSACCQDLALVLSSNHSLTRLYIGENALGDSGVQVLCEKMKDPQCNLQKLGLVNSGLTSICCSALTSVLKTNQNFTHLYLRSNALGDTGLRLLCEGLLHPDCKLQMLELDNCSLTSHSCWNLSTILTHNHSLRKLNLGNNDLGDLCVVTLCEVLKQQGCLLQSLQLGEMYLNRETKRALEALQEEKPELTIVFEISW
Put plainly: IL-1β release from LPS-primed BMDCs (ELISA) as readout of NLRP3 inflammasome activation. It counts as cell-based. An outline of the steps:
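NLRP3 inflammasome activation was read out as IL-1β released into the supernatant, measured by ELISA. Murine BMDCs were primed with LPS (50 ng ml^−1, 3 hours), then incubated with compounds for 3 hours, with each condition run in three technical replicates. Nigericin at 5 μM acted as the positive control activator, and IL-1β release was also expressed as a percentage of that control.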

A further test deals with NLRP3. Kind of test: Inflammasome stimulation (IL-1β, LDH release) in BMDCs from NLRP3 knockout or ASC knockout mice. It counts as cell-based, mouse. The settings on record: IL-1β and LDH release. As to the method: (§1) For canonical inflammasome activation BMDCs after 7-9 days of differentiation were harvested and counted with a Neubauer Chamber (Hecht Assistant) and the concentration was set to 1 Mio cells ml^−1. 100 μl cell suspension per well were seeded in 96-well plates. The cells were primed with 50 ng ml^−1 E. coli K12 ultra-pure LPS for 3 hours and subsequently treated with canonical inflammasome activators or experimental compounds for 3 hours if not indicated differently (incubation time FIG. 4D, 5, 7, 8, 11, 13-18: 3 h, FIG. 12: 4 h). Concentrations of the stimuli were as follows if not indicated differently: 5 μM nigericin, 100 μM imiquimod (also known as R837), 100 μM CL097, 100 μM R848, […] poly(dA:dT), 300 μg ml^−1 MSU. If an inhibitor was used before stimuli treatment, the inhibitor was added after 2.5 hours of priming and it was incubated for 30 minutes before inflammasome activation. Inhibitors were used as follows: 3 μM MCC950, 45 mM KCl, 30 μM ebselen (2-Phenyl-1,2-benzoselenazol-3-one), 5 μM cytochalasin D (see FIGS. 8, 11, 12 and 17).
(§2) All inflammasome stimulations were performed in three technical replicates for each condition. Lytic cell death was determined via LDH release (see FIGS. 8, 13-16 and 18), cytokines quantified in cell-free supernatants via ELISA (see FIGS. 4D, 7-9, 11-19) and cell lysates and supernatants analyzed via immunoblotting (see FIGS. 5A and 5B) as previously described in detail (Gross, Olaf, 2012 “Measuring the inflammasome”, Methods in molecular biology, Clifton, N.J., 844, pp. 199-222. Schneider, Katharina S.; Thomas, Christina J.; Groß, Olaf, 2013, “Inflammasome activation and inhibition in primary murine bone marrow-derived cells, and assays for IL-1α, IL-1β, and caspase-1”, Methods in molecular biology, Clifton, N.J., 1040, pp. 117-135).

Test [2] concerns the target T1, NLRP3 inflammasome. Kind of test: Inflammasome stimulation of BMDCs after pre-incubation with inhibitors (MCC950, KCl, ebselen, cytochalasin D). Format: cell-based. The procedure:
as §1, with “Inhibitors were used as follows: 3 μM MCC950, 45 mM KCl, 30 μM ebselen (2-Phenyl-1,2-benzoselenazol-3-one), 5 μM cytochalasin D (see FIGS. 8, 11, 12 and 17).” left out
as §2

On to `O=C(Nc1cc(C(F)F)ns1)Nc1cc(F)ncc1CO` [BRM/BRG1 ATP Inhibitor-1, reference compound], for which the cytotoxicity at 5 µM with BMDCs (section 1.3, 5 μM, read-out: Average LDH release (% of max.)) came to 16.6%; in the test on BMDCs (section 1.3, single replicates, 5 μM, read-out: LDH release (% of max.)) it was 14.1%. The cytotoxicity at 50 µM turned out to be 35.4% with BMDCs (section 1.3, 50 μM, read-out: Average LDH release (% of max.)) and 38.5% with BMDCs (section 1.3, single replicates, 50 μM, read-out: LDH release (% of max.)). The cytotoxicity at 100 µM in the test on BMDCs (section 1.3, 100 μM, read-out: Average LDH release (% of max.)) is 24.8%; in the test with BMDCs (section 1.3, single replicates, 100 μM, read-out: LDH release (% of max.)) it was 27%. In addition, the “Average (% positive control)” value in the test on BMDCs (section 1.3, 5 μM, positive control nigericin 5 μM) stood at 30.921 % positive control; in the test with BMDCs (section 1.3, 50 μM, positive control nigericin 5 μM) it was 65.959 % positive control; in the test with BMDCs (section 1.3, 100 μM, positive control nigericin 5 μM), 46.154 % positive control; on NLRP3 inflammasome [1] (section 1.3, IL-1β release, 5 μM, positive control nigericin 5 μM), 116.295 % positive control; on NLRP3 inflammasome [1] (section 1.3, IL-1β release, 50 μM, positive control nigericin 5 μM), 189.7925 % positive control; on NLRP3 inflammasome [1] (section 1.3, IL-1β release, 100 μM, positive control nigericin 5 μM) it was 159.415 % positive control. Also, the “Average IL-1β” value on NLRP3 inflammasome [1] (section 1.3, 5 μM) amounted to 3.664 ng/mL; at NLRP3 inflammasome [1] (section 1.3, 50 μM), 5.980 ng/mL; at NLRP3 inflammasome [1] (section 1.3, 100 μM), 5.023 ng/mL. For the same compound, the “IL-1β” value on NLRP3 inflammasome [1] (section 1.3, single replicates, 5 μM) was 3.556 ng/mL and 3.899 ng/mL and 3.537 ng/mL; on NLRP3 inflammasome [1] (section 1.3, single replicates, 50 μM), 4.561 ng/mL and 6.642 ng/mL and 6.737 ng/mL; at NLRP3 inflammasome [1] (section 1.3, single replicates, 100 μM) it was 7.150 ng/mL and 3.831 ng/mL and 4.087 ng/mL. For the same compound, the “characteristics of inflammasome activation in cells isolated from NLRP3 knockout mice” value (“characteristics” below) in the test on NLRP3 was “do not occur”.
As for `COc1ccccc1NC(=O)NCc1nc(-c2ccc(C(F)(F)F)cc2)no1` [EN21, 1-(2-methoxyphenyl)-3-((3-(4-(trifluoromethyl)phenyl)-1,2,4-oxadiazol-5-yl)methyl)urea], the “Average (% positive control)” value turned out to be 68.766 % positive control in the test on BMDCs (compound 50 μM, positive control nigericin 5 μM) and 108.566 % positive control on NLRP3 inflammasome [1] (IL-1β release, compound 50 μM, positive control nigericin 5 μM). Also, in the test with BMDCs (compound 50 μM, LPS-primed BMDCs, read-out: Average LDH release (% of max.)), the cytotoxicity at 50 µM was found to be 50.3%. Further, the “EC50 for induction of IL-1β, times lower than for imiquimod and CL097” value on NLRP3 inflammasome [1] (BMDCs, FIG. 4D) was found to be 10 times. Also, the “Average IL-1β” value on NLRP3 inflammasome [1] (compound 50 μM, LPS-primed BMDCs) came out at 7.782 ng/mL. Besides, at NLRP3 inflammasome [1] (single replicates, compound 50 μM, LPS-primed BMDCs), the “IL-1β” value was 8.582 ng/mL and 7.428 ng/mL and 8.023 ng/mL and 6.613 ng/mL and 8.352 ng/mL and 7.696 ng/mL. Moreover, the “dependence of NLRP3 inflammasome activation on potassium efflux from the cell” value on NLRP3 inflammasome [2] (50 mM extracellular KCl, FIGS. 11 and 17) is on record as “independently of potassium efflux”. Moreover, the “effect of the endocytosis inhibitor cytochalasin D on NLRP3 activation” value on NLRP3 inflammasome [2] (LPS-primed wild-type BMDCs, FIG. 12) is “has no effect”. Also, the “effect of the NLRP3-specific inhibitor MCC950 on inflammasome activation by the compound” value at NLRP3 inflammasome [2] (wild-type BMDCs, compound 50 μM, FIG. 8) is “completely suppresses”. Besides, the “characteristics” value in the test with NLRP3 is “do not occur”.
With `COc1ccc(NC(=O)Nc2ccc3ncccc3c2)cc1` [JB010, 1-(4-methoxyphenyl)-3-(quinolin-6-yl)urea], the “Average (% positive control)” value stood at 44.689 % positive control in the test on BMDCs (20 μM, positive control EN22 20 μM); 62.649 % positive control in the test on BMDCs (40 μM, positive control EN22 20 μM); 77.427 % positive control with BMDCs (80 μM, positive control EN22 20 μM); 122.814 % positive control on NLRP3 inflammasome [1] (IL-1β, 20 μM, positive control EN22); 135.661 % positive control at NLRP3 inflammasome [1] (IL-1β, 40 μM, positive control EN22); 202.590 % positive control on NLRP3 inflammasome [1] (IL-1β, 80 μM, positive control EN22). Further, the cytotoxicity at 20 µM came out at 24.4% with BMDCs (20 μM, individual replicate values, read-out: LDH release (% of max.)) and 23.8% with BMDCs (20 μM, read-out: Average LDH release (% of max.)). Further, the cytotoxicity at 40 µM in the test on BMDCs (40 μM, individual replicate values, read-out: LDH release (% of max.)) turned out to be 31.4%; with BMDCs (40 μM, read-out: Average LDH release (% of max.)) it was 33.4%. The cytotoxicity at 80 µM came out at 38.6% with BMDCs (80 μM, individual replicate values, read-out: LDH release (% of max.)) and 41.2% in the test with BMDCs (80 μM, read-out: Average LDH release (% of max.)). Also, the entries for the “Average IL-1β” value on NLRP3 inflammasome [1] (20 μM), at NLRP3 inflammasome [1] (40 μM) and at NLRP3 inflammasome [1] (80 μM) were 2.404 ng/mL, 2.655 ng/mL and 3.966 ng/mL, respectively. Further, the “IL-1β” value was 2.200 ng/mL and 3.078 ng/mL and 1.934 ng/mL at NLRP3 inflammasome [1] (20 μM, individual replicate values); 2.727 ng/mL and 2.742 ng/mL and 2.498 ng/mL at NLRP3 inflammasome [1] (40 μM, individual replicate values); 2.757 ng/mL and 3.613 ng/mL and 5.527 ng/mL on NLRP3 inflammasome [1] (80 μM, individual replicate values). Further, in the test with NLRP3, the “characteristics” value is reported as “do not occur”.
